From paper PMC6292510 (Molecular pharmaceutics, 2017)
Like-named read-outs stand apart in the source and are kept apart here.

What was measured:
[1] = target: human Ether-a-go-go-Related Gene (hERG) potassium channel (Homo sapiens, UniProt Q12809); assay: Predictor hERG Fluorescence Polarization Assay; format: binding
[2] = Chromatographic hydrophobicity indexing; format: physicochemical; conditions: C18 RP-HPLC, rank among the test compounds
[3] = tested on: neonatal rat ventricular cardiomyocytes (NRVCMs); assay: LIVE/DEAD assay of neonatal rat ventricular cardiomyocytes; format: cell-based; conditions: 50 μM; 12, 24 and 48 h; apparent beginning 12 to 24 h
[4] = tested on: neonatal rat ventricular cardiomyocytes (NRVCMs); assay: MTT viability assay of neonatal rat ventricular cardiomyocytes; format: cell-based; conditions: 0, 50, 100 and 200 µM; 24 or 48 h of analog exposure
[5] = target: cytochrome P450 3A4 (CYP3A4) (Homo sapiens, UniProt P08684); assay: P450-Glo CYP3A4; format: in vitro ADME; conditions: 400 μM (parent hexosamines)
[6] = read-out: hERG inhibition, concentration range, Fig. 8B & C

human Ether-a-go-go-Related Gene (hERG) potassium channel, sequence (Q12809 whole entry): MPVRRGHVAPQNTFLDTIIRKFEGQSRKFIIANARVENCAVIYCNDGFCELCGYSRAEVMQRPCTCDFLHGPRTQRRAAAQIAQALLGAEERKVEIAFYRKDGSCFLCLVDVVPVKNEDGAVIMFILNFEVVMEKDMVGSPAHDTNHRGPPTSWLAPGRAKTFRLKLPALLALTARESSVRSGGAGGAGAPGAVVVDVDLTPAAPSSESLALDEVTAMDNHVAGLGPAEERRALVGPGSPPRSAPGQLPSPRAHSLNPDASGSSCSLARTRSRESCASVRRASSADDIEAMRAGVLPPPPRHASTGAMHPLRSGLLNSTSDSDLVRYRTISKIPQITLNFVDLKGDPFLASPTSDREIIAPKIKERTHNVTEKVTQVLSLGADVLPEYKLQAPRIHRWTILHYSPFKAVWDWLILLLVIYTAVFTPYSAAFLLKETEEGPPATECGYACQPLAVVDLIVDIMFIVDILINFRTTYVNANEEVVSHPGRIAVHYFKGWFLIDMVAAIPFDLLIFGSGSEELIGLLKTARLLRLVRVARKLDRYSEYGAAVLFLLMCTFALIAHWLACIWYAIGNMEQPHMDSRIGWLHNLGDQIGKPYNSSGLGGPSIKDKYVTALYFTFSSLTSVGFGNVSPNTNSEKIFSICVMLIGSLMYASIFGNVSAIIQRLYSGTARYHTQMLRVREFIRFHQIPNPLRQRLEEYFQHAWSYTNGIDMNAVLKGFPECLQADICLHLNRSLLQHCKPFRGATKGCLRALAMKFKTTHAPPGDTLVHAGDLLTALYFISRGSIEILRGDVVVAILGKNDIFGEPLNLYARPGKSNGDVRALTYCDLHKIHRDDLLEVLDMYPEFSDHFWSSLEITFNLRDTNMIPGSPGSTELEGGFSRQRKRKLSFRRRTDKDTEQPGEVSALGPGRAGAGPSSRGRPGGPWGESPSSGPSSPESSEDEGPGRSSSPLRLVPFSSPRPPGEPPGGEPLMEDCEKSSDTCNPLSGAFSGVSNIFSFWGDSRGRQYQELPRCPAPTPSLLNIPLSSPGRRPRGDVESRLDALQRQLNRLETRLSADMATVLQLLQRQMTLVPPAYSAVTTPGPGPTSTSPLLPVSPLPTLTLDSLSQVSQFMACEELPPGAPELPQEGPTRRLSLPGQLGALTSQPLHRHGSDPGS
cytochrome P450 3A4 (CYP3A4), sequence (P08684 whole entry): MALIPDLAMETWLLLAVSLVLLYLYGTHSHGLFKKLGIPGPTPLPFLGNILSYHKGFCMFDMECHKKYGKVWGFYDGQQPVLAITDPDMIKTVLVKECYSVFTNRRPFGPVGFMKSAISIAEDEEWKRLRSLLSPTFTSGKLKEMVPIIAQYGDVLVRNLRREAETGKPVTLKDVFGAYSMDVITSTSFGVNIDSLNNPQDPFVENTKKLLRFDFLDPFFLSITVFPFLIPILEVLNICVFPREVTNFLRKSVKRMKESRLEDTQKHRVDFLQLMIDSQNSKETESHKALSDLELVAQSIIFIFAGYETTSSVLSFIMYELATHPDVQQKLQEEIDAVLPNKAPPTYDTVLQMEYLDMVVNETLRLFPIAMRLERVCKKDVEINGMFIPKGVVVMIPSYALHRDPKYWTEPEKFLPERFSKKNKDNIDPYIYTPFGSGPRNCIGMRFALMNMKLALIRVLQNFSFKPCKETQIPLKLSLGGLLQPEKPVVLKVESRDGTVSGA

| SMILES | cardiomyocyte cell death (LIVE/DEAD) [3] | IC50 [1, 6] | NRVCM cell viability (MTT) [4] | also measured |
| --- | --- | --- | --- | --- |
| CCCC(=O)OC1OC(CO)[C@@H](OC(=O)CCC)[C@H](OC(=O)CCC)C1NC(C)=O (some centres unmarked) [1,3,4-O-Bu3GlcNAc] | – | – | – | hERG inhibition (detectable or not) ([1]; up to 1 mM, the highest concentration tested): no detectable inhibition |
| CCCC(=O)OC1O[C@H](CO)[C@@H](OC(=O)CCC)[C@H](OC(=O)CCC)[C@H]1NC(=O)CN=[N+]=[N-] (some centres unmarked) [1,3,4-O-Bu3GlcNAz] | – | – | – | IC50 ([1]; read-out: hERG inhibition IC50, fluorescence polarization, doses 69.7 pM to 1 mM): 2.85 µM |
| CCCC(=O)OC1OC(CO)[C@@H](OC(=O)CCC)[C@H](OC(=O)CCC)C1NC(=O)CN=[N+]=[N-] (some centres unmarked) [1,3,4-O-Bu3ManNAz] | – | – | – | lipophilicity rank by experimental CHI score [2]: second highest lipophilicity |
| CCCC(=O)OC[C@H]1OC(O)[C@H](NC(C)=O)[C@@H](OC(=O)CCC)[C@@H]1OC(=O)CCC (some centres unmarked) [3,4,6-O-Bu3GlcNAc] | Significantly higher cell death | 1 to 100 µM | significantly reduced NRVCM cell viability | – |
| CCCC(=O)OC[C@H]1OC(O)[C@@H](NC(C)=O)[C@@H](OC(=O)CCC)[C@@H]1OC(=O)CCC (some centres unmarked) [3,4,6-O-Bu3ManNAc] | Significantly higher cell death | 1 to 100 µM | significantly reduced NRVCM cell viability | fold greater hERG potency versus 3,4,6-O-Bu3GlcNAc ([1]; ManNAc analog versus GlcNAc analog): ~ 13 fold |
| CC(=O)N[C@H]1[C@@H](O)[C@H](O)[C@@H](CO)O[C@@H]1O [ManNAc] | – | – | – | effect on CYP3A4 [5]: negligible effect |
